Experimental data reported in patent US12398139B2, “Modulators of AMPA receptor signaling” (Centre for Addiction and Mental Health, priority 2019, dated 2025).

Legend:
[1] = tested on: HEK-293 cells expressing GAPDH and GluR2; experiment: AMPA mediated cell-death assay (CellTox Green Cytotoxicity Assay); format: cell-based; conditions: Homo sapiens, HEK293, AMPA 500 μM, CTZ 100 μM, CellTox Green fluorescence, read-out: Potency, inhibition of AMPA-mediated neurotoxicity (IC50, concentration at which 50% of cell death was prevented)
Protocol: The ability of compounds to inhibit AMPA-mediated neurotoxicity was determined using the CellTox™ Green Cytotoxicity Assay (G8743) kit from Promega. In this assay, GAPDH and GluR2 are expressed in HEK-293 cells. AMPA (500 μM) was added to induce an AMPAR-mediated cell death signalling cascade. This is initiated by the GAPDH-GluR2 complex formation followed by the nuclear translocation of the complex, where it activates the p53-mediated cell death pathway. The presence of a compound which can block dimerization of GAPDH and GluR2 will prevent the nuclear translocation and the cell death and, thus this assay is an effective measure of the ability of a compound to prevent AMPA-mediated neurotoxicity and thus show therapeutic benefit in the treatment of MS.
The assay was performed as per the manufacture's instruction. Briefly, 293 cells stably expressing GluR1 and GluR2VENUS were transfected with pcDNA-RluC-GAPDH. AMPA (500 μM) were added to induce the cell death. CTZ (100 μM) was added to prevent AMPAR desensitization. Candidate molecules were added before the AMPA treatment to test its protective effect. Untreated cells and AMPA treated group were used as negative and positive control respectively. CellTox™ Green Reagent (˜5×) was then added to achieve a final concentration of 1× and cells were incubated at room temperature for 15 minutes (shielded from ambient light). The fluorescence intensity at 485-500 nmEx/520-530 nmEm was then measured and calculated as the percentage value of the positive control. The concentration at which 50% of cell death was prevented (IC50) was determined for each compound.
The potency was measured using the cell death assay described above.

GluR2/GAPDH complex = target: T1, GluR2/GAPDH complex (Homo sapiens, UniProt P42262); experiment: Surface plasmon resonance target engagement assay (competitive GluR2-Venus affinity with GAPDH); conditions: SPR, captured GluR2-VENUS, 100 nM GAPDH peptide, compound top concentration 10 μM; read-out: Potency, GluR2 Binding Affinity (competitive inhibition of GluR2-GAPDH interaction)
T1 construct: host or cells: HEK293 cells stably transfected with GluR2-VENUS (lysate)
T1 sequence (P42262 25-883, species assumed, one chain of several): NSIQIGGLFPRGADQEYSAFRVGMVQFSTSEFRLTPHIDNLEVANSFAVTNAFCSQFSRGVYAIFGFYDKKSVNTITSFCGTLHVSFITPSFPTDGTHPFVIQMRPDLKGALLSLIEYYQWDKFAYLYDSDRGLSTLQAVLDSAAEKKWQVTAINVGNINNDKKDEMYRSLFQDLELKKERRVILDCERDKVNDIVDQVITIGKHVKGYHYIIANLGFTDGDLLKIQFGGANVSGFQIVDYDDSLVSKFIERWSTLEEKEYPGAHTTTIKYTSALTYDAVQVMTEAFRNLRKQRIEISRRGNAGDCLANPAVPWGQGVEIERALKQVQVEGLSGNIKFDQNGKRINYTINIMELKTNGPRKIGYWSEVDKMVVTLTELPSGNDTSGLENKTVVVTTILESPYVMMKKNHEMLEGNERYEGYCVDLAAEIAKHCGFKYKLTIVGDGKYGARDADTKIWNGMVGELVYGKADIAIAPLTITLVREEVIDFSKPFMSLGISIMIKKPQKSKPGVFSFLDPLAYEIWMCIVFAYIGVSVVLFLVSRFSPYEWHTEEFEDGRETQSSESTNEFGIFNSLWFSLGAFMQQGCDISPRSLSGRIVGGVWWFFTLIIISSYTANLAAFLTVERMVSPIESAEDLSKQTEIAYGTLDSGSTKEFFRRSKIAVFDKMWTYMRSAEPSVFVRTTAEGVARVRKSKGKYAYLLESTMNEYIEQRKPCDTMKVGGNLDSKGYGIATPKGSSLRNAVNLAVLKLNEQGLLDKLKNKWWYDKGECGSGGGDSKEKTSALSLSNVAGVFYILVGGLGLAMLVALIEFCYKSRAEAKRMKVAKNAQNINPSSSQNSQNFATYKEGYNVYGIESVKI
Protocol: This is one of the most commonly used techniques to study modulation of protein-protein interactions by small molecule ligands, providing real-time measurement of binding affinities and association/dissociation kinetics of complexes (compound/protein) in a label-free environment. The ability of our lead compound to disrupt the interaction of GluR2/GAPDH complex was measured by the binding affinity. Compounds were analyzed for competitive GluR2-Venus protein affinity (with GAPDH recombinant protein) using a Reichert 2SPR system. The surface was first charged with nickel (500 μM NiCl2 in HBS-P buffer for 300 s at a flow rate of 5 μL/min). The dextran surface was then activated with a 1:1 mixture of N-ethyl-N-dimethylaminopropylcarbodiimide (EDC) and N-hydroxysuccinimide (NHS) on line for final concentrations of EDC and NHS of 37.5 mg/mL and 5.8 mg/mL, respectively, for 420 s at a flow rate of 25 μL/min. Anti-VENUS antibody was first immobilized by capture onto a 500 KDa CM Dextran sensor chip (Reichert), proceeded by activation of the carboxymethylated dextran surface for mild amine coupling, followed by a final blocking injection of 1 M ethanolamine, pH 8.5. GluR2-VENUS (lysate of HEK293 cells stably transfected with GluR2-VENUS) was then captured for 900 s at a flow rate of 25 μL/min followed by a final blocking injection of 2% BSA, for 300 s at a flow rate of 5 μL/min.
The surface plasmon resonance affinity assay was carried out in a PBS buffer consisting of 0.05% Tween 20. For affinity measurements, compound solutions were prepared using ten three-fold serial dilutions in running buffer from a 10 μM top concentration (prepared from DMSO stocks) along with a zero (running buffer) control, mixed with 100 nM GAPDH peptide (Sigma Aldrich). A flow rate of 30 μl/min was used with a 420 s contact time (using high performance injection parameters) followed by a 120 s dissociation phase. Results were analyzed by subtracting the signals of the reference surface from the signals for the protein-bound surfaces and performing a solvent correction. Competitive binding responses were normalized throughout the screen to the percentage of inhibition of the respective small molecule compound. Three independent experiments were performed.
The binding affinity was measured using the surface plasmon resonance assay described above.

EAE mice = experiment: Experimental autoimmune encephalomyelitis (EAE) model for multiple sclerosis; format: in vivo, mice (C57BL/6)
[2] = Human liver microsomal stability assay; format: in vitro ADME; conditions: both sexes, pooled human liver microsomes, pH 7.4; human liver microsomes 0.5 mg/mL, 3 μM compound, NADPH, 37° C., 45 min; read-out: T1/2, human liver microsomal stability
Protocol: (§1) Metabolic stability of 2-pyrrolopyrazoles derivatives was measured by determination of the rate of compound disappearance when incubated in the presence of human or rat liver microsomes. Liver microsomes are prepared from the endoplasmic reticulum of hepatocytes and are the primary source of the most important enzymes (cytochrome P450) involved in drug metabolism. Study of drug stability in the presence of liver microsomes is accepted as a valuable model permitting rapid prediction of in vivo drug stability.
(§2) Human or rat liver microsomes were obtained from a commercial source. Test compounds (3 μM) were incubated with pooled liver microsomes (male and female). Samples were incubated for a 45 minute period and removed at 5 time points and test compounds were analyzed by LC-MS/MS
(§3) Microsomes (final protein concentration 0.5 mg/mL), 0.1 M phosphate buffer pH 7.4, and test compound (final concentration 3 μM; diluted from 10 mM stock solution to give a final DMSO concentration of 0.25%) were incubated at 37° C. prior to the addition of NADPH (final concentration 1 mM) to initiate the reaction. The final incubation volume was 25 μL. A control incubation was included for each compound tested, where 0.1 M phosphate buffer pH 7.4 was added instead of NADPH. The control compounds testosterone and 7-hydroxycoumarin were included in each experiment and all incubations were performed singularly for each compound.
(§4) Each compound was incubated for 0, 5, 15, 30, and 45 minutes. The control (minus NADPH) was incubated for 45 minutes only. The reactions were stopped by the addition of 50 μL methanol containing internal standard at the appropriate time points. The incubation plates were centrifuged at 2500 rpm for 20 minutes at 4° C. to precipitate the protein.
(§5) Following protein precipitation, the sample supernatants were combined in cassettes of up to 4 compounds and analysed using standard LC-MS/MS conditions.
(§6) From a plot of the natural logarithm of the peak area ratio (i.e., the ratio of compound peak area: internal standard peak area) against time, the gradient of the line was determined. Subsequently, half-life and intrinsic clearance were calculated using the equations below: Eliminated rate constant (k)=(−gradient). Half-life (t1/2) (min)=[…]. Intrinsic Clearance (CLint) (μL/min/[…])=(V×0.693)/t1/2. wherein V=Incubation volume (μL/mg microsomal protein).
(§7) Biological half-life values (t1/2) were determined for several 2-pyrrolopyrazoles, as well as the closely-related reference 1-pyrrolopyrazole, using the human liver microsomal stability assay described above.

[3] = Rat liver microsomal stability assay; format: in vitro ADME; conditions: both sexes, pooled rat liver microsomes, pH 7.4; rat liver microsomes 0.5 mg/mL, 3 μM compound, NADPH, 37° C., 45 min; read-out: T1/2, rat liver microsomal stability
Protocol: as §1, §2, §3, §4, §5, §6, §7

Row | SMILES | IC50 (GluR2/GAPDH complex) | half-life at 3 μM [2] | half-life at 3 μM [3] | IC50 [1] | mean clinical score compared with the no treatment group (EAE mice; 5 or 10 mg/kg i.p. daily from day 11~12, two-way ANOVA at least P<0.05) | neurological function (EAE mice; i.p. administration from day 11~12 after immunization (1~2 days after symptoms))
1 | CN(C)C(=O)c1cncc(N2Cc3cn(Cc4ccc(F)cc4)nc3C2)n1 [Compound 155, 6-(2-(4-Fluorobenzyl)-2,6-dihydropyrrolo[3,4-c]pyrazol-5(4H)-yl)-N,N-dimethylpyrazine-2-carboxamide] | 0.4 nM |  |  | 35 nM | significantly lower | greatly improves neurological function
2 | CN(C)C(=O)c1ccnc(N2Cc3cn(Cc4ccc(F)cc4)nc3C2)n1 [Compound 210, 2-(2-(4-Fluorobenzyl)-2,6-dihydropyrrolo[3,4-c]pyrazol-5(4H)-yl)-N,N-dimethylpyrimidine-4-carboxamide] | 33 nM | 749 min |  | 82 nM |  | 
3 | CN(C(=O)c1cncc(N2Cc3cn(Cc4ccc(F)cc4)nc3C2)n1)C1CCCC1 [Compound 228, N-Cyclopentyl-6-(2-(4-fluorobenzyl)-2,6-dihydropyrrolo[3,4-c]pyrazol-5(4H)-yl)-N-methylpyrazine-2-carboxamide] |  | 8 min | < 1 min | 42 nM |  | 
4 | O=C(NC1CCCCC1)c1cccc(N2Cc3cn(Cc4ccc(F)cc4)nc3C2)c1 [Compound 216, N-Cyclohexyl-3-(2-(4-fluorobenzyl)-2,6-dihydropyrrolo[3,4-c]pyrazol-5(4H)-yl)benzamide] | 91 nM | > 1000 min |  | 57 nM |  | 
5 | CN(C(=O)c1ccnc(N2Cc3cn(Cc4ccc(F)cc4)nc3C2)n1)C1CCCC1 [Compound 226, N-Cyclopentyl-2-(2-(4-fluorobenzyl)-2,6-dihydropyrrolo[3,4-c]pyrazol-5(4H)-yl)-N-methylpyrimidine-4-carboxamide] |  | 7 min | < 1 min | 42 nM |  | 

The next lines start with results.

Row | IC50 (GluR2/GAPDH complex) | half-life at 3 μM [2] | half-life at 3 μM [3] | SMILES | IC50 [1] | mean clinical score compared with the no treatment group (EAE mice; 5 or 10 mg/kg i.p. daily from day 11~12, two-way ANOVA at least P<0.05) | neurological function (EAE mice; i.p. administration from day 11~12 after immunization (1~2 days after symptoms))
6 |  |  | < 1 min | CN(C(=O)c1ccnc(N2Cc3cn(Cc4ccc(F)cc4)nc3C2)n1)C1CCCCC1 [Compound 230, N-Cyclohexyl-2-(2-(4-fluorobenzyl)-2,6-dihydropyrrolo[3,4-c]pyrazol-5(4H)-yl)-N-methylpyrimidine-4-carboxamide] | 87 nM |  | 
7 | 8 nM |  | 14 min | O=C(c1cccc(N2Cc3cn(Cc4ccc(F)cc4)nc3C2)c1)N1CCCCC1 [Compound 242, (3-(2-(4-Fluorobenzyl)-2,6-dihydropyrrolo[3,4-c]pyrazol-5(4H)-yl)phenyl)(piperidin-1-yl)methanone] | 79 nM |  | 
8 | 88 nM |  |  | COc1ccc(Cn2cc3c(n2)CN(c2cncc(C(=O)N(C)C)n2)C3)cc1 [Compound 232, 6-(2-(4-Methoxybenzyl)-2,6-dihydropyrrolo[3,4-c]pyrazol-5(4H)-yl)-N,N-dimethylpyrazine-2-carboxamide] | 54 nM |  | 
